Data from ChEMBL document CHEMBL3507680, “University of Dundee, Gates Library screen for HepG2 cell viability”.

Assay: Human HepG2 cell viability assay in 384 well format
Format: toxicity, cell-based
Parameters: dose 125 nL, time 70.5 hour; cytotoxicity at 70.5 h: concentration not given beside the values
Conditions: HepG2 cells, read-out: Inhibition

Row | Structure (SMILES) | cytotoxicity at 70.5 h
1 | CNc1ncc2c(n1)CN(Cc1ccc(Cl)cc1)C2=O | -9.81%
2 | CNc1ncc2c(n1)CN(CCc1ccccc1)C2=O | -12.7%
3 | CCNc1ncc2c(n1)CN(c1ccc(OC(F)(F)F)cc1)C2=O | -15.6%
4 | CCNc1ncc2c(n1)CN(c1ccc(Cl)cc1)C2=O | -14.1%
5 | Cc1nn(C)c2cnn(Cc3ccc(C(=O)NCC4CC4)o3)c12 | -10.2%
6 | CCn1nc(C)c2c1cnn2CCNS(=O)(=O)c1ccccc1 | -6.47%
7 | CCn1nc(C)c2c1cnn2CCNS(=O)(=O)c1cccs1 | 4.54%
8 | Cc1cc(NC(=O)CCn2nc(C)c3ccccc32)n(C)n1 | -1.96%
9 | CCn1nc(C)c2ncnc(NCCN3CCOCC3)c21 | -3.9%
10 | CC(C)NC(=O)c1nnc2ccc(N3CCOCC3)cc2n1 | -5.91%
11 | CCN1C(=O)C(C)(C)c2cc(NC(=O)c3ccn(CC)n3)ccc21 | -19.5%
12 | CCn1nc(C)c(C(=O)Nc2ccc3c(c2)C(C)(C)C(=O)N3C)c1C | -0.0352%
13 | CSc1cccc(NC(C)C(=O)Nc2nccs2)c1 (centres undefined) | 6.07%
14 | Clc1cccc(Cl)c1CNCCOc1ccccn1 | 11.6%
15 | CCn1nc(C)c2nc(C)nc(N(C)Cc3ccco3)c21 | -21.8%
16 | CCn1nc(C)c2nc(C)nc(NCCCn3cccn3)c21 | -7.44%
17 | CCCc1nc(NCCCOC)c2c(n1)c(C)nn2CC | 18.7%
18 | CCCc1nc(N2CCCCCC2)c2c(n1)c(C)nn2CC | -11.6%
19 | CCCc1nc(N2CCSCC2)c2c(n1)c(C)nn2CC | -13.1%
20 | Cc1nn(C)c2c(NCCCn3cccn3)nc(C3CC3)nc12 | -5.95%
21 | Cc1nn(C)c2c(N3CCSCC3)nc(C3CC3)nc12 | -4.86%

Row | Structure (SMILES) | cytotoxicity at 70.5 h
22 | CCn1nc(C)c2nc(C(C)C)nc(NCC(=O)N3CCOCC3)c21 | 5.24%
23 | Cc1nn(C)c2c(N(C)Cc3ccco3)nc(C3CC3)nc12 | 15.5%
24 | CCn1nc(C)c2nc(C(C)C)nc(NCCCn3cccn3)c21 | -4.58%
25 | CCn1nc(C)c2nc(C(C)C)nc(N3CCC(O)CC3)c21 | -15.2%
26 | CCn1nc(C)c2nc(C(C)C)nc(N3CCN(C)CC3)c21 | 29.8%
27 | CCn1nc(C)c2nc(C(C)C)nc(N3CCCC3)c21 | 15.3%
28 | CCn1nc(C)c2nc(C(C)C)nc(NC)c21 | 20.9%
29 | NCc1n[nH]c(-c2ccc(F)cc2)n1 | -0.714%
30 | CC(C)n1cc(S(=O)(=O)N2CCCCCC2)cn1 | -2.52%
31 | COCC(=O)NCCCn1ncc2c(C)cccc21 | -5.2%
32 | O=C(NCCCn1ccnc1)C1CCC(=O)N1Cc1cccs1 (centres undefined) | -9.7%
33 | CCOCCCNC(=O)c1cc(C)nc(N2CCCCC2)n1 | -6.17%
34 | COc1cccc(CNC(=O)c2cc(C)nc(N3CCCC3)n2)c1 | 17.7%
35 | O=C(NCCCO)c1nnsc1-c1ccccc1 | -0.82%
36 | CCOCCCNC(=O)c1cc(OC)c2ccoc2c1 | -1.75%
37 | CCOc1cc(C(=O)N2CCCC2)cc2occc12 | -8.39%
38 | CCn1ccc(NS(=O)(=O)c2cccc(COC)c2)n1 | 8.56%
39 | COCc1cccc(S(=O)(=O)NCc2cnn(C)c2C)c1 | -9.83%
40 | COCc1cccc(S(=O)(=O)N2CCSCC2)c1 | 14%
41 | CCn1ccc(NS(=O)(=O)c2cccc(CSC)c2)n1 | 3.12%
42 | CSCc1cccc(S(=O)(=O)NCCO)c1 | 0.997%

Row | Structure (SMILES) | cytotoxicity at 70.5 h
43 | COCCCNS(=O)(=O)c1cccc(CSC)c1 | -16.6%
44 | CCn1ccc(NC(=O)CCc2c(C)noc2C)n1 | -7.45%
45 | CCn1cc(NC(=O)C2CCC(=O)N2Cc2ccc(C)o2)cn1 (centres undefined) | -2.42%
46 | O=C(O)CSc1nccc(-c2ccc3c(c2)OCO3)n1 | -7.09%
47 | Cc1nc(N2CCOCC2)ncc1-c1cc(O)nc(N2CCCC2)n1 | -2.77%
48 | Cc1ccccc1CNCc1cc(Cl)ccc1O | -11.5%
49 | CCc1cc(=O)n(CC(=O)N2CCCCC2)c(-c2cccc(F)c2)n1 | -9.52%
50 | CCN(CC)C(=O)CSc1nc2cc(C)nc-2c(O)n1Cc1ccco1 | -10.9%
51 | CC(=O)N1CCN(C(=O)c2[nH]nnc2Nc2ccccc2F)CC1 | 8.05%
52 | c1cnc(-c2nn3c(CN4CCCCC4)nnc3s2)cn1 | -6.5%
53 | CCc1ccccc1N1CC(c2nnc(N)s2)CC1=O (centres undefined) | -13.1%
54 | Cc1cc(C(=O)NCc2c(C)nn(C)c2C)nc(N2CCOCC2)n1 | -1.14%
55 | c1ccc(-c2nn3c(CN4CCOCC4)nnc3s2)nc1 | -3.21%
56 | c1cnc(-c2nn3c(CN4CCOCC4)nnc3s2)cn1 | -10.2%
57 | CCN(CC)Cc1nnc2sc(C(C)Oc3ccccc3)nn12 (centres undefined) | 4.82%
58 | Cc1ncc2c(n1)CCCC2NC(=O)c1ccc(Cn2cccn2)cc1 (centres undefined) | -5.6%
59 | O=C(Cc1ccsc1)N1CCC(c2noc(-c3cccnc3)n2)CC1 | -2.37%
60 | CCCN1C[C@H](NC(=O)c2ccccc2F)[C@@H](c2ccc(OC)cc2)C1 | 0.779%
61 | NC(=O)C1CCN(C(=O)CCn2c(C(F)(F)F)cc3cccnc32)CC1 | 3.01%
62 | O=C(c1ccc(O)nc1)N1Cc2ccccc2OC2(CCOCC2)C1 | 0.0352%
63 | O=C(CCn1c(C(F)(F)F)cc2cccnc21)N1CCC(O)CC1 | 2.54%

Row | Structure (SMILES) | cytotoxicity at 70.5 h
64 | O=C(c1cncnc1)N1Cc2ccccc2OC2(CCOCC2)C1 | 2.98%
65 | Cn1nccc1C(=O)N1Cc2cc(Cl)ccc2OC2(CCOCC2)C1 | 2.41%
66 | CCc1cc(C(=O)N2Cc3ccccc3OC3(CCOCC3)C2)on1 | 8.33%
67 | C[C@H](NC(=O)C1CC1)c1nc2cc(-c3ccc(F)cc3)ncn2n1 | 2.87%
68 | O=C(CN1CCCC1)N1CCCC(c2cc(=O)n3c(n2)CCCCC3)C1 (centres undefined) | 2.75%
69 | O=C(Cc1ccsc1)N1CCC(c2noc(-c3ccncc3)n2)CC1 | -0.304%
70 | COc1ccccc1C1=NOC(CC2(C(=O)O)CCOCC2)C1 (centres undefined) | 19.1%
71 | c1ccc(-c2cc(CNCCCN3CCCCC3)c3nnnn3c2)cc1 | -0.978%
72 | CCNC(=O)C1(CC2CC(c3ccccc3OC)=NO2)CCOCC1 (centres undefined) | -0.996%
73 | CC(C)CNC(=O)C1(Cc2ccccc2-c2ccccc2)CCNC1 (centres undefined) | -3.17%
74 | CN(C)CC(=O)N1C[C@@H]2CC[C@H](Oc3ccccc3)[C@@H]2C1 | -0.0251%
75 | COCCOCC(=O)N1C[C@@H]2CC[C@H](Oc3ccccc3)[C@@H]2C1 | -3.37%
76 | Cc1cc(CCC2CN(Cc3ccccc3C(=O)O)CCO2)ncn1 (centres undefined) | -3.08%
77 | CN(C)CCN(C)C(=O)c1ccccc1-n1cc(CN(C)C)cn1 | -0.093%
78 | Cc1noc(C)c1-c1ccc(C2CCCN2C(=O)Cn2ccnc2)nc1 (centres undefined) | 15.1%
79 | Cc1nc2ccc(C(=O)N3C[C@@H](O)[C@H](N4CCCC4)C3)cc2[nH]1 | -1.69%
80 | Cc1cc2c(=O)n3c(nc2s1)CCN(Cc1c[nH]cn1)CC3 | 1%
81 | c1ccc(-c2cc(CNCCCC3CCOC3)c3nnnn3c2)cc1 (centres undefined) | 5.9%
82 | CC(C)OCCCN(Cc1ccncc1)Cc1cc(F)cc(F)c1 | 58.6%
83 | Cc1cc(C(=O)N2CCc3nc(C4CCCN4)ncc3C2)cs1 (centres undefined) | -4.19%
84 | COc1cc2c(cc1CN1CCn3c(CO)nnc3C1)CCC2 | 8.8%
